Square brackets hold non-standard residues; d marks the D form. Peptide text beside a SMILES is read from it. * marks the point of attachment. Phe(F5) = N[C@@H](Cc1c(F)c(F)c(F)c(F)c1F)C(=O)O; Phe(4-Cl) = N[C@@H](Cc1ccc(Cl)cc1)C(=O)O; hArg = N=C(N)NCCCC[C@H](N)C(=O)O; 12Ado = NCCCCCCCCCCCC(=O)O; Nle = CCCC[C@H](N)C(=O)O; Orn = NCCC[C@H](N)C(=O)O; Abu = CC[C@H](N)C(=O)O; PhAc = O=C(Cc1ccccc1)*
Columns and labels:
[1] = tested on: Alzheimer's disease related genes; assay: Mouse Alzheimer's Disease real-time quantitative PCR array on brain samples of 5XFAD mice; type: in vivo; conditions: brain of 5XFAD mice, 10 μg daily for six months
Protocol: Total RNA was isolated and DNAse treated from representative hemispheria using NucleoSpin kit according to the manufacturer's instructions (Macherey-Nagel Inc., Bethlehem, Pa.). Five samples each from the control and the 10 μg MIA-690 group were analyzed. The yield and the quality of RNA samples were determined spectrophotometrically using 260 nm, and 260/280 and 260/230 nm ratio. The synthesis of cDNA was performed as follows. Briefly, 1 μg of RNA from each sample was reverse-transcribed into cDNA by RT First Strand kit (Qiagen). Reverse transcription was done in a Veriti 96-well thermal cycler (Applied Biosystems). The Mouse Alzheimer's Disease real-time quantitative PCR array (PAMM-057Z Qiagen) used in the study contains 84 unique genes related to Alzheimer's disease. All PCR arrays were performed using iQ5 Multicolor Real-Time Detections System (Bio-Rad). […] Data analysis of gene expression was performed using Excel based PCR Array Data Analysis Software provided by the manufacturer (Qiagen): fold-changes in gene expression were calculated using the ΔΔCt method and five stably expressed housekeeping genes (Act b, B2m, GAPDH, Gus b, Hsp 90 ab1) were used for normalization of the results.

HCN-2 cells = assay: Cell viability assay, HCN-2 cells treated with amyloid-β1-42 (MTT), Example 5; type: cell-based; conditions: 10 μM amyloid-β1-42; peptide 10 nM, 100 nM, 1 μM; four days of exposure; FIG. 7
Protocol: Differentiated HCN-2A neuronal cells were treated with 10 μM amyloid-β1-42 alone and in combination with 10 nM, 100 nM and 1 μM of MIA-602, MIA-606 and MIA 640. After the treatment, the cell viability was determinate as indicated by the supplier using the Promega Cell Titer 96® Aqueous Non-Radioactive Cell Proliferation Assay. The absorbance level was determined at 490 nm. Data are percentage of control (n=3).
HCN-2 cells (American Type Culture Collection, Manassas, Va., USA) were cultured in DMEM medium (supplemented with 10% Fetal Bovine Serum (FBS) and 0.1% penicillin/streptomycin) at 37° C. and in an atmosphere of air and 5% CO2. Cell were directly plated into 96-well micro plates at 5,000 cells/cm^2. After 7 days, to allow cell number duplication (up to 70-80% confluence), the differentiation of HCN-2 cells was induced by adding fresh medium containing 25 ng/ml NGF, 0.5 mM dibutyryl cAMP and 0.5 mM isobutylmethylxanthine (IBMX) (all from Sigma-Aldrich, St. Louis, Mo.) for a week. Then, human amyloid-β1-42 (Sunnyvale, Calif.) stock solution (10 mM) was prepared in TRIS and then immediately diluted to appropriate concentrations in the assay medium. The medium used for neurotoxicity assay was N2-supplemented DMEMF12 (Gibco BRL, NY) with 2% FBS. The treatment groups were control, amyloid-β1-42, and the combination treatments with amyloid-β1-42 and 3 doses (10 nM, 100 nM and 1 μM) of the analogs (MIA-602, MIA-606 and MIA-640). The effect of the analogs on cell viability was evaluated after four days of exposure by using the 3-(4,5-Dimethylthiazol-2-yl)-2,5-diphenyltetrazolium bromide (MTT) assay (Cell Titer 96® Non-Radioactive Cell Proliferation Assay, Promega, Madison, Wis.), according to the manufacturer's instructions.

| Compound | Fold change vs. controls: amyloid-β (A4) precursor protein binding family A, member 2 [1] [fold] | Fold change vs. controls: amyloid-β (A4) precursor protein binding family B, member 3 [1] [fold] | viability of neurons (HCN-2) under amyloid-β1-42 co-treatment (HCN-2 cells) |
| --- | --- | --- | --- |
| CCCC[C@H](NC(=O)[C@@H](NC(=O)[C@H](CC(=O)O)NC(=O)[C@H](CCC(N)=O)NC(=O)[C@H](CC(C)C)NC(=O)[C@H](CC(C)C)NC(=O)[C@H](CCCN)NC(=O)[C@H](Cc1c[nH]cn1)NC(=O)[C@H](C)NC(=O)[C@H](CO)NC(=O)[C@H](CC(C)C)NC(=O)[C@H](CCC(N)=O)NC(=O)[C@H](CC)NC(=O)[C@H](CC(C)C)NC(=O)[C@@H](NC(=O)[C@H](CCCN)NC(=O)[C@H](Cc1c[nH]cn1)NC(=O)[C@H](Cc1c(F)c(F)c(F)c(F)c1F)NC(=O)[C@H](CCCCNC(=N)N)NC(=O)[C@H](C)NC(=O)[C@@H](NC(=O)[C@H](Cc1ccc(Cl)cc1)NC(=O)[C@@H](NC(=O)[C@H](C)NC(=O)[C@H](CC(=O)O)NC(=O)[C@@H](CCCNC(=N)N)NC(=O)[C@H](Cc1ccc(O)cc1)NC(=O)CCCCCCCCCCCNC(=O)Cc1ccccc1)[C@@H](C)CC)[C@@H](C)O)C(C)C)[C@@H](C)CC)C(=O)N[C@H](CCCNC(=N)N)C(=O)N[C@@H](CCCCNC(=N)N)C(N)=O [MIA-690, Phac-Ada-Tyr^1-D-Arg^2-Asp^3-Ala^4-Ile^5-Cpa^6-Thr^7-Ala^8-Har^9-Fpa5^10-His^11-Orn^12-Val^13-Leu^14-Abu^15-Gln^16-Leu^17-Ser^18-Ala^19-His^20-Orn^21-Leu^22-Leu^23-Gln^24-Asp^25-Ile^26-Nle^27-D-Arg^28-Har^29-NH2] ({PhAc-12Ado}-Y[dR]DAI[Phe(4-Cl)]TA[hArg][Phe(F5)]H[Orn]VL[Abu]QLSAH[Orn]LLQDI[Nle][dR][hArg]-NH2) | −2.94 | −2.04 | – |
| Phac-Ada-Tyr^1-D-Arg^2-Asp^3-Ala^4-Ile^5-Cpa^6-Thr^7-Ala^8-Har^9-Fpa5^10-His^11-Orn^12-Val^13-Leu^14-Abu^15-Gln^16-Glu^17-Ser^18-Ala^19-His^20-Orn^21-Leu^22-Leu^23-Gln^24-Asp^25-Ile^26-Nle^27-D-Arg^28-Har^29-Ada-NH2 [MIA-640] | – | – | attenuated the toxic impact of co-treatment with amyloid-β1-42 on the viability of neurons |
| Phac-Ada-Tyr^1-D-Arg^2-Asp^3-Ala^4-Ile^5-Phe(F)5^6-Thr^7-Ala^8-Har^9-Tyr(Me)^10-His^11-Orn^12-Val^13-Leu^14-Abu^15-Gln^16-Leu^17-Ser^18-Ala^19-His^20-Orn^21-Leu^22-Leu^23-Gln^24-Asp^25-Ile^26-Nle^27-D-Arg^28-Har^29-NH2 [MIA-602] | – | – | attenuated the toxic impact of co-treatment with amyloid-β1-42 on the viability of neurons |
| Phac-Ada-Tyr^1-D-Arg^2-Asp^3-Ala^4-Ile^5-Phe(F)5^6-Thr^7-Me-Ala^8-Har^9-Tyr(Me)^10-His^11-Orn^12-Val^13-Leu^14-Abu^15-Gln^16-Leu^17-Ser^18-Ala^19-His^20-Orn^21-Leu^22-Leu^23-Gln^24-Asp^25-Ile^26-Nle^27-D-Arg^28-Har^29-Agm-NH2 [MIA-606] | – | – | attenuated the toxic impact of co-treatment with amyloid-β1-42 on the viability of neurons |

Source: patent US20150166617A1, “COMPOSITIONS AND METHODS OF TREATING ALZHEIMER'S DISEASE” (UNIVERSITY OF MIAMI, priority 2012, published 2015)
